Assay results: the supplement of paper PMC8882468

Experiments:
Assay in all cases: CTG-3D luminescence at 96 h relative to day-0 seeding control (ratio to day 0); higher = more growth / less cytotoxicity; PDxO 3D drug screen, 96 h, CTG-3D normalised to day-0 seeding control.
HCI-017.E2 = test system: HCI-017.E2 (organoid from an ER-positive breast cancer xenograft)
HCI-002 = test system: HCI-002 (organoid from a triple-negative breast cancer xenograft)
HCI-023 = test system: HCI-023 (organoid from a triple-negative breast cancer xenograft)
HCI-001 = test system: HCI-001 (organoid from a triple-negative breast cancer xenograft)
MDA-MB-231 = test system: MDA-MB-231

C=CC(=O)N1CCC[C@@H](n2nc(-c3ccc(Oc4ccccc4)cc3)c3c(N)ncnc32)C1 [ibrutinib]
CTG-3D luminescence at 96 h
Details | 12.5 pM | 0.00025 µM | 0.005 µM | 0.1 µM | 1 µM | 10 µM | 100 µM | 625 fM
HCI-017.E2 | 1.84 | 2.24 | 2.27 | 2.21 | 2.29 | 1.49 | 0.00316 | 2.16
MDA-MB-231 | 4.49 | 4.45 | 4.49 | 4.64 | 4.82 | 4.66 | -0.0103 | 4.55

CTG-3D luminescence at 96 h
Details | 12.5 pM | 0.00025 µM | 0.005 µM | 0.1 µM | 1 µM | 10 µM | 100 µM | 625 fM
HCI-001, days in culture: 240 | 1.62 | 0.923 | 0.958 | 1.01 | 0.901 | 0.951 | -0.0017 | 1.14
HCI-001, days in culture: 260 | 2.29 | 1.15 | 2.12 | 0.971 | 1.31 | 1.12 | -0.00311 | 1.46
HCI-001, days in culture: 269 | 1.59 | 1.71 | 1.51 | 1.41 | 1.06 | 1.38 | -0.0108 | 1.48
HCI-001, days in culture: 327 | 1.45 | 1.07 | 1.49 | 1.3 | 1.25 | 0.932 | -0.00545 | 1.92
HCI-001, days in culture: 346 | 1.37 | 1.36 | 1.14 | 0.896 | 1.23 | 1.15 | -0.00544 | 1.3
HCI-001, days in culture: 364 | 1.37 | 1.18 | 1.57 | 0.992 | 1.12 | 1.02 | -0.00371 | 1.6
HCI-002, days in culture: 62 | 2.83 | 2.33 | 2.92 | 2.77 | 1.54 | 1.45 | -0.0218 | 2.97
HCI-002, days in culture: 82 | 3.16 | 2.97 | 2.43 | 2.38 | 1.77 | 1.32 | -0.0175 | 2.68
HCI-002, days in culture: 91 | 3.98 | 3.44 | 3.33 | 3.61 | 2.11 | 1.75 | -0.0238 | 3.98
HCI-002, days in culture: 191 | 2.76 | 2.47 | 2.21 | 2.23 | 1.69 | 1.34 | -0.014 | 2.82
HCI-002, days in culture: 209 | 2.33 | 2.16 | 2.33 | 1.87 | 1.63 | 1 | -0.0179 | 2.34
HCI-002, days in culture: 227 | 5.2 | 5.07 | 4.64 | 4.59 | 2.61 | 2.26 | -0.0321 | 5.19
HCI-017.E2, days in culture: 85 | 2.54 | 2.97 | 2.31 | 2.54 | 1.88 | 1.6 | 0.0338 | 2.31
HCI-023, days in culture: 111 | 1.24 | 1.25 | 1.32 | 1.2 | 1.03 | 1.02 | -0.00294 | 1.29
HCI-023, days in culture: 128 | 1.42 | 1.43 | 1.55 | 1.48 | 1.26 | 1.03 | -0.00478 | 1.54

NC(=O)c1cccc2cn(-c3ccc([C@@H]4CCCNC4)cc3)nc12 [niraparib]
CTG-3D luminescence at 96 h
Details | 12.5 pM | 0.00025 µM | 0.005 µM | 0.1 µM | 1 µM | 10 µM | 100 µM | 625 fM
HCI-017.E2 | 1.823 | 1.66 | 1.89 | 1.61 | 1.48 | 1.58 | 0.00319 | 1.94
MDA-MB-231 | 4.51 | 4.46 | 4.51 | 4.46 | 4.41 | 3.96 | 0.00282 | 4.58

CTG-3D luminescence at 96 h
Details | 12.5 pM | 0.00025 µM | 0.005 µM | 0.1 µM | 1 µM | 10 µM | 100 µM | 625 fM
HCI-001, days in culture: 240 | 1.8 | 0.913 | 0.843 | 1.05 | 1.61 | 1.03 | -0.07 | 1.32
HCI-001, days in culture: 260 | 2.65 | 1.11 | 2.11 | 1.64 | 1.53 | 1.92 | -0.0335 | 1.4
HCI-001, days in culture: 269 | 1.85 | 1.93 | 1.42 | 1.32 | 1.1 | 1.23 | -0.00141 | 1.67
HCI-001, days in culture: 327 | 1.97 | 1.95 | 2.3 | 1.8 | 1.66 | 1.28 | -0.186 | 2.27
HCI-001, days in culture: 346 | 1.69 | 1.24 | 1.24 | 1.4 | 1.51 | 1.1 | -0.143 | 1.28
HCI-001, days in culture: 364 | 1.81 | 1.28 | 1.69 | 1.33 | 1.33 | 1.2 | -0.0638 | 1.67
HCI-002, days in culture: 62 | 3.51 | 3 | 3.42 | 2.62 | 1.36 | 0.533 | -0.0877 | 3.34
HCI-002, days in culture: 82 | 3.5 | 3.51 | 2.69 | 2.16 | 1.29 | 0.381 | -0.026 | 2.77
HCI-002, days in culture: 91 | 2.87 | 2.3 | 1.8 | 1.74 | 1.11 | 0.377 | -0.0114 | 2.66
HCI-002, days in culture: 191 | 3.37 | 2.98 | 3.35 | 2.51 | 1.99 | 0.811 | -0.139 | 3.21
HCI-002, days in culture: 209 | 2.84 | 2.96 | 2.54 | 1.96 | 1.18 | 0.302 | -0.0818 | 2.86
HCI-002, days in culture: 227 | 4.63 | 5.21 | 4.64 | 3.79 | 2.08 | 0.87 | -0.0133 | 5.51
HCI-017.E2, days in culture: 85 | 2.25 | 2.22 | 2.21 | 2.63 | 2.09 | 1.81 | 0.00236 | 1.95
HCI-023, days in culture: 111 | 1.92 | 1.44 | 1.58 | 1.16 | 0.886 | 0.393 | -0.00664 | 1.85
HCI-023, days in culture: 128 | 1.57 | 1.57 | 1.61 | 1.42 | 0.892 | 0.695 | 0.00157 | 1.67
